Experiments:
[1] = test system: leaf explants of sugarcane cultivar 91N406; assay: Direct shoot regeneration in leaf explants on MS medium with BA and NAA; type: cell-based; settings: 91N406 explants; BA 4 μM
From the text: Table 12: Direct shoot regeneration in leaf explants (1-2 mm thick) of sugarcane cultivar 90N876 cultured on MS medium supplemented with 6-benzyladenine (BA) and α-napthaleneacetic acid (NAA) for 8 weeks. Thirty replicates, each with 10 explants cultured in top down orientation, were maintained for each treatment. Table 13: Direct shoot regeneration in leaf explants (1-2 mm thick) of sugarcane cultivar 91N406 cultured on MS medium supplemented with 6-benzyladenie (BA) and α-napthaleneacetic acid (NAA) for 8 weeks. Five replicates, each with 10 explants cultured in top down orientation were maintained for each treatment.
(§1) Top portions (about 30 cm) of shoots were cut and all leaves except the innermost 3-4 whorls were carefully removed under aseptic conditions. TS explants measuring about 1.0-2.0 mm or 5.0-6.0 mm in thickness were prepared by serial transverse sectioning of the lowermost 3-4 cm portion (just above the apical meristem) of the leaf spindle using a sharp surgical blade under sterile conditions.
Murashige & Skoog (MS) nutrient formulation supplemented with 30 g/L sucrose and 7.5 g/L Difco agar were used as the basal culture medium. […]

[2] = test system: leaf explants of sugarcane cultivar Q165; assay: Shoot regeneration in leaf explants on MS medium with cytokinin and auxin; type: cell-based; settings: at any given concentration of NAA; Tables 7, 8 and 10
Method: as §1
(§2) Murashige & Skoog (MS) nutrient formulation supplemented with 30 g/L sucrose and 7.5 g/L Difco agar were used as the basal culture medium. Basal medium was enriched with different concentrations and combinations of (i) a cytokinin: 6-benzylaminopourine (BA) or kinetin (KIN); (ii) an auxin: α-napthaleneacetic acid (NAA); and (iii) anti-oxidants: citric acid (CA), ascorbic acid (AA), or dithiothreitol (DTT); depending on the experimental objective. The pH of the medium was adjusted to 5.7 before autoclaving for 20 minutes at 120° C. […]
Also, the concentrations of BA and NAA were varied in order to determine their influence upon shoot generation. […] The percentage of explants producing shoots were scored, as were the number of shoots produced per explant. […]

[3] = test system: leaf base sections of sorghum variety New Nugget; assay: Somatic embryogenesis and shoot production in leaf base sections; type: cell-based, Sorghum bicolor L.; settings: for regeneration with other hormone combinations: sorghum
From the text: Table 26: Effect of different levels of cholorophenoxyacetic acid (CPA) on somatic embryogenesis and shoot production in 1.0-2.0 mm thick leaf base sections of sorghum (Sorghum bicolor L.) variety New Nugget after 8 weeks of culture. Five to six replicates, each with 10 explants placed in “top down” orientation, were maintained for each treatment. All cultures received 16 hr light every day.
Table 27: Effect of different levels of cholorophenoxyacetic acid (CPA) and 6-benzyladenine (BA) on somatic embryogenesis and shoot production in 1.0-2.0 mm thick leaf base sections of sorghum (Sorghum bicolor l L.) variety New Nugget after 8 weeks of culture. Five to six replicates, each with 10 explants placed in “top down” orientation, were maintained for each treatment. All cultures received 16 hr light every day.
Young developing leaf sheaths (the innermost 3-4 whorls at the shoot tip) were used as the explant. Explants were preferably 1.0-2.0 mm thick transverse sections taken from the whorls. MS nutrient medium containing 3% sucrose and 7.5 g/L Davis J3 agar was used as the basal medium for all experiments. MS-based medium with several plant growth regulators was tested as a micropropagation medium.

[4] = test system: leaf whorl explants of sugarcane cultivar Q165; assay: Somatic embryogenesis / shoot regeneration in leaf whorl explants; type: cell-based; settings: sugarcane leaf section cultures
Method: Table 19: Morphogenic response of leaf whorl explants (1.0-2.0 mm thick) of sugarcane cultivar Q165 after 8 weeks of culture on MS medium supplemented with chlorophenoxyacetic acid (CPA). Ten replicates, each with 10 explants placed in top down orientation, were maintained for each treatment. Explants were cultured under dark condition for the initial 5-6 weeks and then transferred to light (16 hr/day) for further shoot/planlet development. C=Mostly non-embroygenic callus was produced.
Table 20: Morphogenic response of leaf whorl explants (1.0-2.0 mm thick) of sugarcane cultivar Q165 after 8 weeks of culture on MS mediun supplemented with chlorophenoxyacefic acid (CPA). Ten replicates, each with 10 explants placed in top down orientation, were maintained for each treatment. All cultures received 16 hr light every day.
Table 21: Shoot regeneration in 1.0-2.0 mm thick leaf whorl explants of sugarcane cultivar Q165 after 8 weeks of culture on MS medium containing 6-benzyladenine (BA), α-naphthaleneacetic acid (NAA) and cholorophenoxyacetic acid (CPA). Ten replicates, each with 10 explants placed in top down orientation, were maintained for each treatment. All cultures received 16 hr light every day. […]

[5] = test system: inflorescence explants of sugarcane Q152; assay: Regeneration from inflorescence explants; type: cell-based; settings: Table 18 (b) ˜8 mm pieces of main floral axis placed laterally
Method: Table 18: Comparison of regeneration efficiency for different sugarcane explants. Explants were (a) 2-3 mm sections of main floral axis of inflorescence; (b) ˜8 mm sections of main floral axis placed laterally on the culture medium; (c) immature floral tissues dissociated from floral axis; and (d) whole 2-3 mm sections of inflorescence oriented “top down”. B4N10=4 μM BA+10 μM NAA; B4N40=4 μM BA+40 μM NAA; B4N60=4 μM BA+60 μM NAA; 2,4D14=14 μM 2,4,D. “Top down” orientation is as previously described. Shoot frequency legend: *1-2 shoots per explant; **3-10 shoots per explant; ***greater than […] shoots per explant.
Young bolting inflorescence “stalk” tissue enveloped in developing leaves (floral and leaf components) was harvested from above the apical meristem of Q152 or Q165 sugarcane plants. Transverse sections were made to produce 2-3 mm thin sections of the tissue.
as §2, with “objective.” for “objective. The pH of the medium was adjusted to 5.7 before autoclaving for 20 minutes at 120° C.”

`O=C(O)Cc1cccc2ccccc12` [NAA, α-napthaleneacetic acid] was tested, and the “optimal concentration of NAA for shoot regeneration” value [1] was 40 µM.
`c1coc(CNc2ncnc3[nH]cnc23)c1` [KIN, kinetin] was tested, and the “optimal concentration of cytokinin for shoot regeneration” value [2] was 4 µM and the “effect on shoot regeneration” value ([3]; added after the initial embryo formation) was “enhanced”.
With `COc1c(Cl)ccc(Cl)c1C(=O)O` [dicamba] the “regeneration with other hormone combinations” value [3] was “unsucessful” and the callus growth ([3]; sorghum cultures containing dicamba) was “some callus growth was seen”.
For `Nc1c(Cl)c(Cl)nc(C(=O)O)c1Cl` [picloram], the “regeneration with other hormone combinations” value [3] was “unsucessful”.
With `Nc1cc(Cl)cc(C(=O)O)c1Cl` [AD, 3 amino-2,5-dichlorobenzoic acid] the “morphological abnormalities in the regenerated plants” value [4] was “developed albinos occasionally”.
In the case of `O=C(O)COc1ccc(Cl)cc1Cl` [2,4-D14], the “Number of explants showing reg'n” value [5] is reported as 0 and the “Percentage of explants regenerating” value [5] is reported as 0%.
`O=C(Nc1ccccc1)Nc1cnns1` [thidiazuron] was tested, and the “regeneration with other hormone combinations” value [3] was “unsucessful”.

— US20030180952A1, “Plant regeneration” (Sugar Research & Development Corporation, priority 2000, published 2003)
